Consider 14 compounds from paper PMC10802846 (Cell chemical biology, 2023).

Assay [1] deals with T1, HDAC8 (Homo sapiens, UniProt Q9BY41).
T1 sequence (Q9BY41 1-377): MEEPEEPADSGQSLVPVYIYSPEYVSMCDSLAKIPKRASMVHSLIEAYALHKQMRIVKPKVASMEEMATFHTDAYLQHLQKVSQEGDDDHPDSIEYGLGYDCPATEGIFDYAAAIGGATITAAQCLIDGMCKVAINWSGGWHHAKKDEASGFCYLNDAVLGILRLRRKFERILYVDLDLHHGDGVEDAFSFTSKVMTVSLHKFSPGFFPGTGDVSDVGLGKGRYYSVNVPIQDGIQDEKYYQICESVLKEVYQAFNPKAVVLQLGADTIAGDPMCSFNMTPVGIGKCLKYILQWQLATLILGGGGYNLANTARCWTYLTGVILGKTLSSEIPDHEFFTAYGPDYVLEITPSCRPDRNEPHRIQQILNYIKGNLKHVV
Nature of the assay: HDAC8 degradation by Western blot in MDA-MB-231 cells. Format: cell-based. In general terms: Immunoblotting shows a protein as a band on a membrane.

The target in a further assay is HDAC3 (Homo sapiens, UniProt O15379+P40337). Put plainly: HDAC3 degradation by Western blot in MDA-MB-231 cells. Format: cell-based.
Sequence of HDAC3 (O15379 whole entry): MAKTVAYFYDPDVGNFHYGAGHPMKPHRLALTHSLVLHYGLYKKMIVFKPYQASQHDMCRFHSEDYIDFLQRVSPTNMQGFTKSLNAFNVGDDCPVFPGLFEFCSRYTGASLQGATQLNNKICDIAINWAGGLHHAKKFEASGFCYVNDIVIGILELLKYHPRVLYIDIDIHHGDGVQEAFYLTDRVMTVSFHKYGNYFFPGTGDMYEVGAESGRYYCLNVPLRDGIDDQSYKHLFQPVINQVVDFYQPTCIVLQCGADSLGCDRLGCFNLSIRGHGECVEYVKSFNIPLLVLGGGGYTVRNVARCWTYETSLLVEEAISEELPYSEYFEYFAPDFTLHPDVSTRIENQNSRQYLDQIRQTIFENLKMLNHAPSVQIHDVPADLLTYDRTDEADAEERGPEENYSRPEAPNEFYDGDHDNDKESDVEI
Sequence of HDAC3 (O75376 whole entry partner): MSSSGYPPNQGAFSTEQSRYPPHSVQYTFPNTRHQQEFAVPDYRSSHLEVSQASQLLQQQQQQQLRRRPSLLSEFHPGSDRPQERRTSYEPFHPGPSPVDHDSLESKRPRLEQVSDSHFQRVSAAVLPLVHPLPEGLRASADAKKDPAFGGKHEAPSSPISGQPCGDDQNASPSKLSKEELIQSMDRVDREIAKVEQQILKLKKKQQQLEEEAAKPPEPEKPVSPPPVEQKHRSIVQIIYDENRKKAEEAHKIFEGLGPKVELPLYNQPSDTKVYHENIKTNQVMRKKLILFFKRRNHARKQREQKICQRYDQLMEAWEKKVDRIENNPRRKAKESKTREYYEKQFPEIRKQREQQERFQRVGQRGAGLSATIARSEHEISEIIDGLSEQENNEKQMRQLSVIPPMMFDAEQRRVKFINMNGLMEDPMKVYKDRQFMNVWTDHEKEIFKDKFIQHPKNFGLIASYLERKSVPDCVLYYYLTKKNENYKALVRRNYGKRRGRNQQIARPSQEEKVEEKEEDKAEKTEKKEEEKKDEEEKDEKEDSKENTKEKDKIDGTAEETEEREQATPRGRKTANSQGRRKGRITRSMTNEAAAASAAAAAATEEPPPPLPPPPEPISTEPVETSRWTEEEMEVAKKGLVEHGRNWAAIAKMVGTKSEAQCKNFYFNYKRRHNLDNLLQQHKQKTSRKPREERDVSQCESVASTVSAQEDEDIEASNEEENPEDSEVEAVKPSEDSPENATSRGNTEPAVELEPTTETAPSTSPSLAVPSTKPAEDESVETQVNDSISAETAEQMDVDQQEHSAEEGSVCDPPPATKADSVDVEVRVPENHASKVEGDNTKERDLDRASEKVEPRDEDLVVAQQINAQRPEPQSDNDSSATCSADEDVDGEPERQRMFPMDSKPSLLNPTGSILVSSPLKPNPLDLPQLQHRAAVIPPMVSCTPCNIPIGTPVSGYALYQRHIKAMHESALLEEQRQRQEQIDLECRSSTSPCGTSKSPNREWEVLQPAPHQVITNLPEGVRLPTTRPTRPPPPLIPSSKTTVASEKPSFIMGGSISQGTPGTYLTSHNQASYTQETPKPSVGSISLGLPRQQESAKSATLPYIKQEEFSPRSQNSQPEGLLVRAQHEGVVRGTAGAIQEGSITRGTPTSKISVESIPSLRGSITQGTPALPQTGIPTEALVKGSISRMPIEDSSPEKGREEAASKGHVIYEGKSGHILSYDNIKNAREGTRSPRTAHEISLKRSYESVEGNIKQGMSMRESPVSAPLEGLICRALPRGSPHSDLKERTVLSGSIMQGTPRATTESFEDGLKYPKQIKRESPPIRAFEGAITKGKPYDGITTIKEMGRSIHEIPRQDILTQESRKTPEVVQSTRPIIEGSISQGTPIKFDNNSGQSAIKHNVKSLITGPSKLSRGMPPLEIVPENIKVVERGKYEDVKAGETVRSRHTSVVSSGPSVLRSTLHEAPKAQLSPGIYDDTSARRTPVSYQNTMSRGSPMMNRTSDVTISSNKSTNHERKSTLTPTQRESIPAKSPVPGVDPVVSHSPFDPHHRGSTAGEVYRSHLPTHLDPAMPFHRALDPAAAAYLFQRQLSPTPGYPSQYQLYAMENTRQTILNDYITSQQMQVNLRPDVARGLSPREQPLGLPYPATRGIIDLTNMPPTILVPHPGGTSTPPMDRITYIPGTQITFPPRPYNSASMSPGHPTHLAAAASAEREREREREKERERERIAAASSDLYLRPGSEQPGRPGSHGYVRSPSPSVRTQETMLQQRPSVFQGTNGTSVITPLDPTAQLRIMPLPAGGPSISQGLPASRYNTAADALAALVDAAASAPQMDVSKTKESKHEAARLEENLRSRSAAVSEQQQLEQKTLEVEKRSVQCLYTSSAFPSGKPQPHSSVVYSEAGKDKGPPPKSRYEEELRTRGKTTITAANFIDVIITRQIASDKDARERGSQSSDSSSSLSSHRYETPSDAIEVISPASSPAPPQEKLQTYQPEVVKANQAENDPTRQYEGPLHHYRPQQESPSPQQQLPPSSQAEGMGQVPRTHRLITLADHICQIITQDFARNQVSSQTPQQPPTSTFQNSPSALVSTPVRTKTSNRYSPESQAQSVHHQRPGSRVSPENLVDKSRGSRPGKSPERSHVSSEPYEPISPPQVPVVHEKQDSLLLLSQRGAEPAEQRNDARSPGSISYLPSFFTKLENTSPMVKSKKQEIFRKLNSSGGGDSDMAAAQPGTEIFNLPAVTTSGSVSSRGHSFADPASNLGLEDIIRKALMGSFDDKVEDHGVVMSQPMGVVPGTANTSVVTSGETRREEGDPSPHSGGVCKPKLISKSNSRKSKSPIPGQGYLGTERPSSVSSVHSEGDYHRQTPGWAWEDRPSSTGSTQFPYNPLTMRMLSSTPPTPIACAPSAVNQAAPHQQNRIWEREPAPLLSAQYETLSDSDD
Sequence of HDAC3 (P40337 whole entry): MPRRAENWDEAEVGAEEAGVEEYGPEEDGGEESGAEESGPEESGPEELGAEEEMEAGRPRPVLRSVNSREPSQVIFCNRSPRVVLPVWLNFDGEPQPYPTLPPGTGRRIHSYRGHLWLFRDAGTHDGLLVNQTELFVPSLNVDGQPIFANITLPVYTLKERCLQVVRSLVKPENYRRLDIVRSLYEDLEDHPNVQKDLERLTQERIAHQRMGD
Sequence of HDAC3 (Q15370 whole entry partner): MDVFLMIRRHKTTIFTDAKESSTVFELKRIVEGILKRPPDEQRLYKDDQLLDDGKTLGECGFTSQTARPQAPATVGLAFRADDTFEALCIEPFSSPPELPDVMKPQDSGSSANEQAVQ
Sequence of HDAC3 (Q15369 whole entry partner): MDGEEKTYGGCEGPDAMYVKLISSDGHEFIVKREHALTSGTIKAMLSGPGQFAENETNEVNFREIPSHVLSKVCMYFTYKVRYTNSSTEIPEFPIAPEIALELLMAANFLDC
A further assay has as its system BC cell lines. Put plainly: Colony formation assays, comparison across several BC cell lines. The conditions noted are these: alone or in combination. Format: cell-based, human.
A further assay concerns MDA-MB-231 cells. Put plainly: RNA-seq differential gene expression. Format: cell-based, human. Particulars: for number of downregulated genes / number of upregulated genes: 24 h, fold-change≥|2|, p ≤ 0.01.
Assay [2] addresses T1, HDAC8. Put plainly: HDAC activity assay. In kind it is biochemical.
A further assay relates to MDA-MB-231. Nature of the assay: Colony formation assay, MDA-MB-231. In kind it is cell-based, human.
The next assay relates to p21. Put plainly: p21 induction by Western blot in MDA-MB-231 cells. Format: cell-based, human. The conditions noted are these: MDA-MB-231, 16 h.
Another assay relates to H1299. Nature of the assay: Colony formation assay, H1299. Format: cell-based, human.
A further assay concerns cell cycle progression. Put plainly: Cell cycle profiling. The conditions noted are these: 24 h. In kind it is cell-based.
For a further assay, the system named is MDA-MB-468. Put plainly: Colony formation assay, MDA-MB-468. In kind it is cell-based, human.
In another assay the target is HDAC2 (Homo sapiens, UniProt Q92769). Nature of the assay: HDAC2 protein level by Western blot in MCF7 and MDA-MB-231 cells. Format: cell-based.
Sequence of HDAC2 (Q92769 whole entry): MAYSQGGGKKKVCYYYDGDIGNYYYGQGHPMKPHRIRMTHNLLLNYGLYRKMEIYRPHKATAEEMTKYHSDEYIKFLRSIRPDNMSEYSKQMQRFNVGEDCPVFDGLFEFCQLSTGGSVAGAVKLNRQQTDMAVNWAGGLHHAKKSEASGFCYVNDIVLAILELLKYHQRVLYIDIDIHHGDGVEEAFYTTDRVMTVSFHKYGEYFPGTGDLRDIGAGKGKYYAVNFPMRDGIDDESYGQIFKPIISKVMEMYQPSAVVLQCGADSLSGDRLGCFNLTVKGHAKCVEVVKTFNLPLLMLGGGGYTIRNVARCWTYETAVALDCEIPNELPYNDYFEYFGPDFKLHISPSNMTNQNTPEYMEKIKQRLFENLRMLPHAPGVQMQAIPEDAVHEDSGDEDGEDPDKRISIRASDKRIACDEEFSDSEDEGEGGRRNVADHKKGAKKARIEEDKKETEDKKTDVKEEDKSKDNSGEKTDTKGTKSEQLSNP
Another assay concerns MCF7. Put plainly: Colony formation assay, MCF7. In kind it is cell-based, human.
For another assay, the system named is BT549. Put plainly: Colony formation assay, BT549. In kind it is cell-based, human.
Assay [3] has as its system acetylated core histones (H3K27ac, H2BK5ac, and H4K8ac). Nature of the assay: Histone acetylation by Western blot. In kind it is cell-based, human.
The next assay has as its system caspase 3 (CASP3). Nature of the assay: CASP3 cleavage. Format: cell-based, human. Particulars: MDA-MB-231, 16 h.
Another assay has as its system HCC1806. Nature of the assay: Colony formation assay, HCC1806. Format: cell-based, human.
The subject of the next assay is acetylated SMC3. Put plainly: Acetylated SMC3 by Western blot in MDA-MB-231 cells. In kind it is cell-based, human. Particulars: YX968 16 nM, 14 h.
Assay [4] addresses HDAC1 and the VHL complex (Homo sapiens, UniProt Q13547). Put plainly: AlphaLISA ternary complex formation, HDAC1. Particulars: broad range of YX968 concentrations. Format: binding. On the technique in general: In Alpha technology, singlet oxygen from a donor bead excites a nearby acceptor bead.
A further assay concerns T47D. Put plainly: Colony formation assay, T47D. Format: cell-based, human.
In assay [5] the target is T2, HDAC1 (Homo sapiens, UniProt Q13547). Nature of the assay: HDAC1 protein level by Western blot in MCF7 and MDA-MB-231 cells. In kind it is cell-based.
T2 sequence (Q13547 whole entry): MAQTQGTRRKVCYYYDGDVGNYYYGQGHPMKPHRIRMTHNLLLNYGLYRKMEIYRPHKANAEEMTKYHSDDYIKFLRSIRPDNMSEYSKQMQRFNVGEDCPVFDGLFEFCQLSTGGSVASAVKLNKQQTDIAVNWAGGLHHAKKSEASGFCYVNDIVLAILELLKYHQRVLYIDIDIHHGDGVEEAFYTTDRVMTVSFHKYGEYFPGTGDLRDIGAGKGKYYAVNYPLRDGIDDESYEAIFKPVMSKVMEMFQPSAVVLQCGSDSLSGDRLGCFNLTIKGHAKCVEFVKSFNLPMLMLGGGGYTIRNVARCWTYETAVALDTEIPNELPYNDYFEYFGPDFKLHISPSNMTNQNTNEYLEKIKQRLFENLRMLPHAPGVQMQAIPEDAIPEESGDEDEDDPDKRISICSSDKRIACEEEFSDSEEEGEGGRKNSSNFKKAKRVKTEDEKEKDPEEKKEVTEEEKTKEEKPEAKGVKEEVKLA
The target in assay [6] is T2, HDAC1. Nature of the assay: HDAC activity assay. In kind it is biochemical.
The next assay concerns HDAC1/3/8. Nature of the assay: HDAC1/3/8 inhibitory activity in vitro, statements across the three isozymes. In kind it is biochemical. Particulars: for HDAC1/3/8 inhibitory potency and selectivity: warhead analogues.
Setting [7] is: pretreatment with probe, then YX968, MDA-MB-231.
Where [8] appears, read: q-value ≤0.05 and fold-change ≥|2.0|.

Structures are written as SMILES. Entries after “also recorded” stand apart in the source; their conditions may differ. Read-outs that look alike come from different tables or passages of the source. Residues, ends and D or L forms follow the SMILES beside them. *: point of attachment. Cbz = O=C(OCc1ccccc1)*

Sequence of HDAC1 and the VHL complex (Q13547 whole entry, one chain of several): as the sequence (Q13547 whole entry) above

In the case of `Cc1cc2c(C(N)=O)cccc2n1-c1nc2c(c(NCc3ccccc3)n1)COCC2` [CB-5803], the “effect of pretreatment on YX968-mediated HDAC8 degradation” value at HDAC8 [1] was “effectively blocked”. Besides, the “effect of pretreatment on YX968-mediated HDAC3 degradation” value at HDAC3 is given as “only slightly rescued”.
Regarding `CC(C)C[C@@H](C=O)NC(=O)[C@H](CC(C)C)NC(=O)[C@H](CC(C)C)NC(=O)OCc1ccccc1` [MG132] (Cbz-Leu-Leu-Leu-aldehyde), the “effect of pretreatment on YX968-mediated HDAC8 degradation” value is “blocked” at HDAC8 [1] (setting [7]) and “effectively blocked” at HDAC8 [1] (probe at 3 μM). Further, the results for the “effect of pretreatment on YX968-mediated HDAC3 degradation” value at HDAC3 (setting [7]), on HDAC3 (probe at 3 μM) and on HDAC3 (probe at 10 μM) were “blocked”, “only moderately reversed” and “more effectively rescued”, respectively.
For `NS(=O)(=O)OC[C@@H]1C[C@@H](n2ccc3c(N[C@H]4CCc5ccccc54)ncnc32)C[C@@H]1O` [MLN4924], the “effect of pretreatment on YX968-mediated HDAC8 degradation” value on HDAC8 [1] (setting [7]) is recorded as “highly effective in blocking”. The “effect of pretreatment on YX968-mediated HDAC3 degradation” value at HDAC3 (setting [7]) is “highly effective in blocking”.
`COc1ccc(Cn2ccc3ccc(C(=O)NO)cc32)cc1` [PCI 34051]: the “potency to suppress cell growth vs YX968” value in the assay on BC cell lines is “less potent than YX968”.
Same read-out and setting: as for `Nc1cc(F)ccc1NC(=O)/C=C/c1cnn(C/C=C/c2ccccc2)c1` [RGFP-966], the entry is “less potent than YX968”.
`CCCCNNC(=O)c1ccc(Br)cc1` [UF010]: in the assay with MDA-MB-231 cells (UF010 treatment), the “number of downregulated genes” value was 761 and the “number of upregulated genes” value is given as 2,678. Besides, in the assay with MDA-MB-231 cells (setting [8]), the “number of downregulated DEGs” value came out at 572 and the “number of upregulated DEGs” value is given as 1,792.
As to `CC(=O)N[C@H](C(=O)N1C[C@H](O)C[C@H]1C(=O)NCc1ccc(-c2scnc2C)cc1)C(C)(C)C` [VH032], the “effect of pretreatment on YX968-mediated HDAC8 degradation” value on HDAC8 [1] (setting [7]) is on record as “effectively competed”.
On to `CCCNNC(=O)c1ccc(-c2ccc(NC(=O)CCCCCCC(=O)N[C@H](C(=O)N3C[C@H](O)C[C@H]3C(=O)N[C@@H](C)c3ccc(-c4scnc4C)cc3)C(C)(C)C)cc2)cc1` [XZ9002, reference compound], for which the midpoint of inhibition at HDAC8 [2], the IC50, lay at 1090 nM. The “inhibition of clonogenic growth” value in the assay with MDA-MB-231 (MDA-MB-231, 3 μM) is recorded as “moderate inhibition”.
As to `CCCNNC(=O)c1ccc(N2CCN(CCCCCCCC(=O)N[C@H](C(=O)N3C[C@H](O)C[C@H]3C(=O)N[C@@H](C)c3ccc(-c4scnc4C)cc3)C(C)(C)C)CC2)cc1` [YX968, (2S,4R)-1-((S)-3,3-dimethyl-2-(8-(4-(4-(2-propylhydrazine-1-carbonyl)phenyl)piperazin-1-yl)octanamido)butanoyl)-4-hydroxy-N-((S)-1-(4-(4-methylthiazol-5-yl)phenyl)ethyl)pyrrolidine-2-carboxamide], the “concentration at which weak p21 induction was seen” value in the assay with p21 is 250 nM. The “clonogenic growth sensitivity” value with H1299 is on record as “quite resistant”. Besides, the “effect on cell cycle” value in the assay on cell cycle progression (0.1 μM) is reported as “negligibly perturbed; also recorded: did not alter cell cycle”; in the assay on cell cycle progression (1 μM), “strong G1 arrest; also recorded: markedly induced G1 arrest”. For the same compound, in the assay on MDA-MB-231 cells (50 nM), the “number of downregulated genes” value is reported as 41. Besides, the “number of upregulated genes” value in the assay with MDA-MB-231 cells (50 nM) came to 53. Also, the “significant DEGs” value with MDA-MB-231 cells (setting [8]) is “no significant DEGs”. Also, the “concentration at which clonogenic growth was effectively inhibited” value with MDA-MB-468, in the assay on MCF7, in the assay on BT549, in the assay with HCC1806 and in the assay on T47D was 125 nM in each case. The “effect on HDAC2 protein level” value on HDAC2 is “did not affect; also recorded: not degraded”. In addition, the “levels of acetylated core histones” value in assay [3] (MCF-7 and MDA-MB-231 cells) was “dose-dependently increased”. Also, in assay [3] (MDA-MB-231, 16 h), the “concentration at which H3K27ac was weakly detectable” value was 63 nM. The “CASP3 cleavage (activation)” value in the assay with caspase 3 (CASP3) is reported as “in a dose-dependent manner”. Further, in the assay with caspase 3 (CASP3), the “concentration at which weak CASP3 activation was notable” value came out at 63 nM. Also, the “levels of acetylated SMC3” value in the assay on acetylated SMC3 is “increased”. Further, the “clonogenic growth suppression” value in the assay on MDA-MB-231 (MDA-MB-231) is “effectively suppressed at a sub-μM concentration”. Also, the “ternary complex formation with HDAC1” value in [4] is on record as “not able to induce a complex”. Besides, the “effect on HDAC1 protein level” value at HDAC1 [5] was “did not affect; also recorded: not degraded”. Further, the IC50 (as a rule, the point on the concentration scale where inhibition reaches its midpoint) at HDAC1 [6] was 591 nM.
Turning to `CC[C@H](NC(=O)[C@H](C)NC)C(=O)N1C[C@@H](O)C[C@H]1Cc1c(-c2[nH]c3cc(F)ccc3c2C[C@@H]2C[C@H](O)CN2C(=O)[C@H](CC)NC(=O)[C@H](C)NC)[nH]c2cc(F)ccc12` [birinapant, reference compound], the “CASP3 cleavage (activation)” value with caspase 3 (CASP3) is “activated CASP3”.
Regarding `CC(C)C[C@H](NC(=O)[C@H](Cc1ccccc1)NC(=O)c1cnccn1)B(O)O` [bortezomib], at HDAC3 (setting [7]), the “effect of pretreatment on YX968-mediated HDAC3 degradation” value is “could also reverse”.
With `CCCNNC(=O)c1ccc(N2CCN(C(C)=O)CC2)cc1` [compound 14, 4-(4-acetylpiperazin-1-yl)-N′-propylbenzohydrazide], the “fold less potent than 15 for the three HDAC isozymes” value in the assay on HDAC1/3/8 (HDAC1, HDAC3, HDAC8) is 3- to 7 fold. Further, the “HDAC1/3/8 inhibitory potency and selectivity” value with HDAC1/3/8 was “preferentially inhibited HDAC3”.
As to `CCCNNC(=O)c1ccc(N2CCN(C)CC2)cc1` [compound 15, 4-(4-methylpiperazin-1-yl)-N′-propylbenzohydrazide], the “HDAC1/3/8 inhibitory potency and selectivity” value in the assay on HDAC1/3/8 is “highest potency among all the new analogues”.
Turning to `CCCNNC(=O)c1ccc(CN2CCN(C(C)=O)CC2)cc1` [compound 16, 4-((4-acetylpiperazin-1-yl)methyl)-N′-propylbenzohydrazide], the “HDAC1/3/8 inhibitory potency and selectivity” value with HDAC1/3/8 was “dramatic decline of selectivity and potency”.
